Data taken from PubChem BioAssay (NCI).
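Tested at 5 concentrations; 48 h exposure; 96-well plates; endpoints linearly interpolated, else capped at highest concentration. Abbreviation: GI50, concentration required for 50% inhibition of growth. The concentration for full growth arrest is given as TGI.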

How the values were obtained:
Assay in all cases: NCI tumour cell line growth inhibition, 48 h
[1] = tested on: OVCAR-8 ovarian
[2] = tested on: U251 CNS
[3] = tested on: EKVX NSCLC
[4] = tested on: 786-0 renal
[5] = tested on: HT29 colon
[6] = tested on: SW-620 colon
[7] = tested on: SK-MEL-2 melanoma
[8] = tested on: SF-295 CNS
[9] = tested on: OVCAR-5 ovarian
[10] = tested on: LOX IMVI melanoma
[11] = tested on: NCI-H23 lung
[12] = tested on: TK-10 renal
[13] = tested on: NCI-H460 lung
[14] = tested on: DU-145 prostate
[15] = tested on: KM12 colon
[16] = tested on: MOLT-4 leukemia
[17] = tested on: HS 578T breast
[18] = tested on: OVCAR-3 ovarian
[19] = tested on: PC-3 prostate
[20] = tested on: HOP-92 NSCLC
[21] = tested on: SR leukemia
[22] = tested on: NCI-H226 lung
[23] = tested on: SNB-19 CNS
[24] = tested on: MDA-MB-231 breast
[25] = tested on: MALME-3M melanoma
[26] = tested on: UACC-257 melanoma
[27] = tested on: SK-MEL-28 melanoma
[28] = tested on: T-47D breast
[29] = tested on: ACHN renal

Structure (SMILES): Clc1ccccc1Nc1nnc(-c2c[nH]c3ccccc23)o1
- TGI [1]: 18.1 µM
- GI50 [2]: 505 nM
- TGI [2]: 17.5 µM
- GI50 [3]: 3.05 µM
- TGI [3]: 77.7 µM
- GI50 [4]: 9.52 µM
- TGI [4]: 28.1 µM
- GI50 [5]: 353 nM
- TGI [5]: 10.3 µM
- GI50 [6]: 479 nM
- TGI [6]: 29.1 µM
- GI50 [7]: 318 nM
- TGI [7]: 1060 nM
- GI50 [8]: 316 nM
- TGI [8]: 10.2 µM
- GI50 [9]: 4.33 µM
- TGI [9]: 31.9 µM
- GI50 [10]: 618 nM
- TGI [10]: 19.8 µM
- GI50 [11]: 2000 nM
- TGI [11]: 17.1 µM
- GI50 [12]: 8.09 µM
- TGI [12]: > 100 µM
- GI50 [13]: 787 nM
- TGI [13]: 15.2 µM
- GI50 [14]: 2780 nM
- TGI [14]: 56.9 µM
- GI50 [15]: 1570 nM
- TGI [15]: 28.7 µM
- GI50 [16]: 654 nM
- TGI [16]: 23.2 µM
- GI50 [17]: 1520 nM
- TGI [17]: 20.6 µM
- GI50 [18]: 430 nM
- TGI [18]: 15 µM
- GI50 [19]: 1900 nM
- TGI [19]: 57.6 µM
- GI50 [20]: 11.5 µM
- TGI [20]: 54.6 µM
- GI50 [21]: 387 nM
- TGI [21]: > 100 µM
- GI50 [22]: 5.39 µM
- TGI [22]: > 100 µM
- GI50 [23]: 721 nM
- TGI [23]: 31.5 µM
- GI50 [24]: 2180 nM
- TGI [24]: 23.5 µM
- GI50 [25]: 498 nM
- TGI [25]: 20.1 µM
- GI50 [26]: 14.1 µM
- TGI [26]: 88.7 µM
- GI50 [27]: 10.4 µM
- TGI [27]: 27.3 µM
- GI50 [28]: 4.1 µM
- TGI [28]: > 100 µM
- GI50 [29]: 1490 nM
- TGI [29]: 37.5 µM
